Biological target: LCMV Z protein (Zabton-3 / Zabton FRET biosensor, trimeric tandem Z) (Lymphocytic choriomeningitis virus (strain Armstrong), UniProt P18541)
Sequence (P18541 whole entry, looked up): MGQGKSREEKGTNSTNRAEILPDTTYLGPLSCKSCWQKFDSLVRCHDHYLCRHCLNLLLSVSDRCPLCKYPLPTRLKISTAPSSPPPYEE

SMILES: Nc1nc(N)c2c3c(sc2n1)CN(Cc1ccccc1)CC3 [#4, 5,6,7,8-tetrahydro-7-(benzyl)-pyrido[4',3':4,5]thieno[2,3-d]pyrimidin-2,4-diamine]
- decrease of FRET/CFP emission ratio: both of them decreased the FRET ratio in a concentration-dependent manner

Reference: article PMC10511043 (Cell Structure and Function, 2020)
